Experimental findings from patent US20260240906A1, “MUSCLE MASS INCREASING AGENT AND ENDURANCE IMPROVING AGENT” (KOHAKU BIO TECHNOLOGY CO., LTD., priority 2023, published 2026) are described below.

Common to all, as to format: cell-based, mouse
For test [1], the system named is C2Cl2 myotube cells. As to the kind of experiment: Effect on intracellular ATP concentration (luciferin-luciferase system). The note with it: 6 hours or 12 hours. The method, then:
(§1) The amber extract obtained through extraction by the method of Example 1 was analyzed for its action using myoblasts C2Cl2. The C2Cl2 cells are cells established from mouse regenerating muscles (striated muscles) and are considered to be derived from muscle satellite cells. The myoblasts, when cultured in a differentiation inducing medium, are fused and differentiated into myotube cells.
(§2) The C2Cl2 myoblasts were cultured in Dulbecco's modified Eagle medium (DMEM) supplemented with 10% FBS, penicillin (100 Us/ml), and streptomycin ([…]) under conditions of 37° C. and 5% CO2. Differentiation into myotube cells was induced by medium replacement with DMEM containing 2% horse serum when the cells reached 95% confluency. The experiment was carried out using the differentiated C2Cl2 myotube after 5 to 7 days from the induction of differentiation.
Intracellular ATP levels were measured using a luciferin-luciferase system. C2Cl2 cells were inoculated at 0.5×10^4 cells/well to a 96-well plate and cultured at 37° C. for 48 hours until confluent. After induction of differentiation for 5 days, the cells were treated with the amber extract (25 or 50 μg/mL) prepared by the method of Example 1 or succinic acid (2.5 or 5 μg/mL) for 6 hours or 12 hours. The luminescence of each well was measured at 480/530 nm (excitation/luminescence) using a microplate reader (Synergy H1, BioTek Instruments).

In test [2] the test system is C2Cl2 myotube cells. The experiment in a line: Detection of mitochondrial ROS. The note with it: 1, 2.5, or 5 μg/mL, 24 hours. The method, then:
as §1, §2
Accordingly, in order to confirm this, mitochondrial ROS was detected. C2Cl2 cells were inoculated at 0.5×10^4 cells/well to a 96-well plate and cultured at 37° C. for 48 hours until confluent. After induction of differentiation for 5 days in a differentiation inducing medium, the cells were treated with the amber extract ([…]) or succinic acid (1, 2.5, or 5 μg/mL) for 24 hours. The mitochondrial ROS was measured at 485/565 nm (excitation/fluorescence) using Mitochondrial ROS Detection Assay Kit (Cayman Chemical Company).

Test [3] relates to C2Cl2 myotube cells. As to the kind of experiment: Detection of mitochondrial membrane potential (JC-1). Conditions: 1, 2.5, or 5 μg/mL, 24 hours. The method, then: as §1, §2
Mitochondrial membrane potential serving as an indicator for mitochondrial activation was also analyzed. C2Cl2 cells were inoculated at 0.5×10^4 cells/well to a 96-well plate and cultured at 37° C. for 48 hours until confluent. […] The mitochondrial membrane potential was measured at green: 485/535 nm (excitation/fluorescence) and red: 535/595 nm (excitation/fluorescence) using JC-1 MitoMP Detection Kit (Dojindo Laboratories).

For `O=C(O)CCC(=O)O` [succinic acid], the ATP concentration entry in the test with C2Cl2 myotube cells [1] (2.5 μg/mL) and in the test on C2Cl2 myotube cells [1] (5 ug/mL) was “no change” in each case. Further, the “mitochondrial activation (mitochondrial ROS)” value in the test on C2Cl2 myotube cells [2] is “no mitochondrial activation”. For the same molecule, the “mitochondrial activation (membrane potential)” value with C2Cl2 myotube cells [3] is “no mitochondrial activation”.
